The data set can be described thus: solvent given as SMILES.
Setting [1] is: in c1ccc2c(c1)c1ccccc1n2-c1ccc(-c2ccc(-n3c4ccccc4c4ccccc43)cc2)cc1.

Results on 46 molecules are retold here after the Deep4Chem optical property database.

Molecules are shown by their SMILES.

For the molecule `CCCCCCc1ccc2c3c(ccc2c1)O[B-](c1ccccc1)(c1ccccc1)[N+](c1ccc([N+]2=Cc4c(ccc5cc(CCCCCC)ccc45)O[B-]2(c2ccccc2)c2ccccc2)cc1)=C3`, the emission maximum (in C1CCOC1) is reported as 568 nm, the emission maximum (in CC#N) is on record as 561 nm, the emission maximum (in Cc1ccccc1) is 569 nm and the emission maximum (in ClCCl) came out at 568 nm.

Molecule `CC1=CC(C)=[N+]2C1=C(c1ccc(C(=O)OC3C[C@@H]4CC[C@]3(C)C4(C)C)cc1)c1c(C)cc(C)n1[B-]2(F)F` (some centres undefined) showed an emission maximum (in Cc1ccccc1) of 518 nm.

With `CCOC(=O)C1=C(C)NC2=C(C(=O)c3ccccc32)C1c1ccc(N(C)C)cc1` (centres undefined), the emission maximum is, setting by setting: (in C1CCOC1) 497 nm; (in C1COCCO1) 490 nm; (in CC#N) 542 nm; (in CCO) 559 nm; (in CN(C)C=O) 540 nm; (in CO) 561 nm. Besides, the emission maximum is given as 548 nm (in CS(C)=O), 475 nm (in ClC(Cl)(Cl)Cl), 532 nm (in ClC(Cl)Cl) and 530 nm (in ClCCl).

Under “in ClC(Cl)Cl”, `CN(C)c1ccc(-c2ccc(-c3cc(-c4ccccc4)c(-c4ccccc4)c(-c4ccccc4)c3-c3ccccc3)s2)cc1` gave an emission maximum of 419 nm.

For the molecule `CCOC(=O)c1c(-c2cc3ccccc3oc2=O)nn(-c2ccc(C)c(C)c2)c1C(=O)OCC`, the emission maximum (in ClCCl) was 408 nm.

With `CC1=[N+]2C(=C(c3ccccc3)c3c4c(c(C)n3[B-]2(F)F)C2CCC4CC2)C2=C1C1CCC2CC1`, the emission maximum (in CC#N) is 543 nm.

`O=P(c1c2ccccc2cc2ccccc12)(c1c2ccccc2cc2ccccc12)c1c2ccccc2cc2ccccc12` showed an emission maximum (in C1CCOC1) of 452 nm.

As for `C(=C\c1cnc2ccccc2n1)/c1ccc(N2CCCCC2)cc1`, the emission maximum is 557 nm (in C1CCOC1); 617 nm (in CC#N); 480 nm (in CCCCCCC); 626 nm (in CS(C)=O); 583 nm (in ClCCl).

On to `COc1ccc(-c2cc3oc(=O)cc(C)c3cc2-c2ccc(OC)c(OC)c2)cc1OC`, for which, where the note is “in C1CCOC1”, the emission maximum stood at 457 nm.

`COc1ccc2c(c1)CCC1=C(c3ccccc3)C3=C(c4ccc5cccc(O)c5n4)c4c(-c5ccccc5)c5c(n4[B-](F)(F)[N+]3=C12)-c1ccc(OC)cc1CC5` yielded an emission maximum (in O) of 680 nm.

`F[B-]1(F)OC(c2ccccc2)=Cc2c3ccccc3c3ccccc3[n+]21` came in with an emission maximum (in ClC(Cl)Cl) of 447 nm.

Turning to `C1=Nc2cccc3cccc(c23)N1`, the emission maximum reads like this: (in CC#N) 476 nm; (in CO) 485 nm; (in CS(C)=O) 482 nm; (in Cc1ccccc1) 472 nm.

`CCN(CC)c1ccc2c(-c3ccccc3C(=O)O)c3c([o+]c2c1)/C(=C/c1ccc(N(C)C)s1)CCC3` registered an emission maximum (in ClCCl) of 766 nm.

The molecule `CC(C)(C)NC(=O)c1cc2ccccc2c2ccc3c4ccccc4c4ccccc4c3c12` yielded an emission maximum (in ClCCl) of 419 nm.

Where the note is “in ClCCl”, `Cc1cc(=O)cc(-c2ccc(-c3nc4ccccn4c3NC3CCCCC3)cc2)o1` returned an emission maximum of 500 nm.

As for `Clc1cccc(-c2nc3sc4ccccc4c3s2)c1`, where the note is “in CS(C)=O”, the emission maximum was 420 nm.

For the molecule `CCCCCCOc1ccc(C#Cc2ccc(C#CC#Cc3ccc(C#Cc4ccc(OCCCCCC)c(OCCCCCC)c4)c4nsnc34)c3nsnc23)cc1OCCCCCC`, the emission maximum by setting is: (in CN(C)C=O) 638 nm; (in COc1ccccc1) 555 nm; (in Cc1ccccc1) 528 nm; (in ClC(Cl)Cl) 563 nm; (in ClCCCl) 591 nm; (in ClCCl) 582 nm.

With `N#Cc1cc2ccccc2oc1=O`, the emission maximum is 412 nm (in C1CCCCC1); 409 nm (in C1CCOC1); 407 nm (in CC#N); 410 nm (in CCOC(C)=O); 405 nm (in CS(C)=O); 411 nm (in ClC(Cl)Cl).

Regarding `CC(C)(C)c1ccccc1N(c1ccccc1)c1ccc(S(=O)(=O)c2ccc(S(=O)(=O)c3ccc(N(c4ccccc4)c4ccccc4C(C)(C)C)cc3)cc2)cc1`, the emission maximum runs as follows: (in Cc1ccccc1) 444 nm; (in c1cc(-n2c3ccccc3c3ccccc32)nc(-n2c3ccccc3c3ccccc32)c1) 465.06 nm.

`C(=C(c1ccccc1)c1ccccc1)c1ccc(-c2ccc(-c3nc4c5ccccc5c5ccccc5c4n3-c3cccc(-c4ccc(C=C(c5ccccc5)c5ccccc5)cc4)c3)cc2)cc1` returned an emission maximum (in C1CCOC1) of 449 nm.

`CCC1=C(C)C2=Cc3c4ccccc4c4n3[B-](c3cc[n+](C)cc3)(Oc3ccccc3-4)[N+]2=C1C=Cc1ccc(OC)cc1` (centres undefined): the emission maximum by setting is: (in CO) 717 nm; (in CS(C)=O) 727 nm.

Molecule `CC(C)(C)c1ccc(-c2nc(-c3ccc(C(C)(C)C)cc3)nc(-c3cc(C#N)c(-n4c5ccccc5c5c6oc7ccccc7c6ccc54)c(C#N)c3)n2)cc1` yielded an emission maximum (in C1CCOC1) of 504.66 nm.

Consider `Nc1ccccc1`, for which the emission maximum (in C1CCCCC1) amounted to 323.42 nm.

For the molecule `CCCCN(CCCC)c1ccc2c(c1)C#CC#Cc1cc(C(F)(F)F)ccc1C#Cc1cc(c3cc1C#Cc1ccc(C(F)(F)F)cc1C#CC#Cc1cc(N(CCCC)CCCC)ccc1C#C3)C#C2`, the emission maximum was determined as 550 nm (in ClCCl) and 503 nm (in c1ccccc1).

Consider `c1ccc(-c2csc(-c3ccncc3)n2)cc1`, for which the emission maximum reads like this: (in CC#N) 498 nm; (in CCO) 407 nm; (in CN(C)C=O) 402 nm; (in ClCCl) 472 nm.

With `COc1cc(/C=C/c2ccccn2)c(OC)cc1C=O`, the emission maximum is listed as 446 nm (in C1CCOC1); 458 nm (in CC#N); 456 nm (in CN(C)C=O); 444 nm (in Cc1ccccc1); 455 nm (in ClCCl).

As to `Cc1cc2c(cc1N1c3ccccc3C(C)(C)c3ccccc31)C(C)(C)c1cc(N3c4ccccc4C(C)(C)c4ccccc43)c(C)cc1S2(=O)=O`, the emission maximum runs as follows: (in Cc1ccccc1) 442.11 nm; (in ClCCl) 495 nm.

As to `CC/[NH+]=c1\cc2oc3cc(NCCOC(=O)C(NC(=O)OC(C)(C)C)C(C)C)c4ccccc4c3nc-2cc1C` (centres undefined), the emission maximum is, setting by setting: (in CCO) 652 nm; (in O) 652 nm.

Molecule `c1ccc(-c2nc3sc4ccccc4c3s2)cc1` had an emission maximum (in CS(C)=O) of 412 nm.

As for `C[Si](C)(C)c1sc([Si](C)(C)C)c2c1sc1c2sc2sc3sc4c(sc5c([Si](C)(C)C)sc([Si](C)(C)C)c54)c3c21`, the emission maximum (in ClC(Cl)Cl) came out at 360 nm.

Turning to `CCC1=C(C)C2=Cc3c4ccccc4c4n3[B-](C)(Oc3ccccc3-4)[N+]2=C1C` (centres undefined), the emission maximum worked out at 630 nm (in CC#N), 632 nm (in CCCCCC), 636 nm (in Cc1ccccc1) and 635 nm (in ClCCl).

For the molecule `COc1ccc(C2CC(=O)Oc3c2c2nc4ccccc4nc2c2ccccc32)cc1` (centres undefined), where the note is “in ClC(Cl)Cl”, the emission maximum was 449 nm.

`CCc1c(C)c2n(c1C)[B-](F)(F)[N+]1=C(c3ccc[nH]3)c3ccccc3C1=C2C`: the emission maximum is, setting by setting: (in C1CCOC1) 627 nm; (in CC#N) 623 nm; (in CCCCCC) 622 nm; (in CO) 622 nm; (in Cc1ccccc1) 630 nm; (in ClCCl) 629 nm.

Where the note is “in ClCCl”, `CC1=C2C=CC(c3ccccc3)=[N+]2[B-](F)(F)n2c1ccc2-c1ccccc1` yielded an emission maximum of 577 nm.

Consider `COc1ccc(-n2nc(C#N)c(N3CCCC3)n2)cc1OC`, for which the emission maximum (in CC#N) was 417 nm.

For `CCc1ccccc1-c1c2ccccc2c(C#Cc2ccccc2)c2cc3ccccc3cc12`, the emission maximum (in ClCCl) worked out at 537 nm.

With `CN(C)c1ccc2c(-c3cc(C(=O)[O-])ccc3C(=O)[O-])c3ccc(=[N+](C)C)cc-3oc2c1`, the emission maximum is, setting by setting: (in CCO) 564 nm; (in O) 575 nm.

For the molecule `Cc1cc(C)c(B(c2c(C)cc(C)cc2C)c2c(C)cc(N3c4ccccc4Oc4ccccc43)cc2C)c(C)c1`, the emission maximum is, setting by setting: (in Cc1ccccc1) 509 nm; under setting [1], 504 nm.

Turning to `O=P1(c2ccccc2)c2cc(N3c4ccccc4Oc4ccccc43)ccc2-c2ccc(N3c4ccccc4Oc4ccccc43)cc21`, the emission maximum (in Cc1ccccc1) is reported as 540 nm and the emission maximum under setting [1] is 550 nm.

Turning to `CCCCCCCCC1(CCCCCCCC)c2cc(-c3ccc(C(=O)OC)cc3)ccc2-c2ccc(-c3ccc(C(=O)OC)cc3)cc21`, the emission maximum (in ClC(Cl)Cl) is 388 nm.

With `C[C@]12SC(=O)C=C1c1nc(-c3ccc(O)cc3)[nH]c1C1=CC(=O)S[C@@]12C`, the emission maximum (in CC#N) is on record as 536 nm.

Take `c1ccc(-c2cc3cccc[n+]3[b-]3ccc(-c4cc[b-]5c(c4)c(-c4ccccc4)cc4cccc[n+]54)cc32)cc1`: the emission maximum (in C1CCCCC1) stood at 568 nm.

For `CC(=O)c1ccc(C#Cc2ccc(-c3cc(N(C)C)c4ccccc4c3)cc2)cc1`, the emission maximum (in ClCCl) stood at 458 nm.

`COc1ccccc1C1=[N+]2C(=Nc3c(-c4ccccc4)cc(-c4ccccc4OC)n3[B-]2(F)F)C(c2ccccc2)=C1` showed an emission maximum (in Cc1ccccc1) of 688 nm.

Turning to `CC(=O)c1c2c(cc3c(N(C)C)cccc13)CCC2`, the emission maximum (in C1CCCCC1) stood at 480 nm; the emission maximum (in C1CCOC1) is reported as 543 nm; the emission maximum (in C1COCCO1) was 534 nm; the emission maximum (in CC#N) was determined as 590 nm; the emission maximum (in CCO) was found to be 634 nm; the emission maximum (in CS(C)=O) stood at 598 nm. Also, the emission maximum stood at 520 nm (in Cc1ccccc1), 562 nm (in ClC(Cl)Cl) and 562 nm (in ClCCl).

As to `C(=C\c1nc2ccccc2s1)/c1ccc(-c2nc3c4cccnc4c4ncccc4c3[nH]2)cc1`, the emission maximum runs as follows: (in C1CCOC1) 469 nm; (in CC#N) 485 nm; (in CO) 488 nm; (in ClCCl) 472 nm.
